Source: patent US20240132431A1, “METHOD FOR ALKYLATING ACIDIC FUNCTIONAL GROUP” (Chugai Seiyaku Kabushiki Kaisha, priority 2021, published 2024)
Each block holds one compound with its values, some of them ahead of it.

Target: T1, Bcl-2 protein (Recombinant Human Bcl-2 Protein) (Homo sapiens, UniProt P10415)
T1 construct: purchased Novus NBP2-34889
Assay: Binding evaluation of mixture library compounds to Bcl-2 using AS-MS (affinity selection mass spectrometry)
Conditions: for ASMS ratio (%) n = 1: replicate n = 1; for ASMS ratio (%) n = 1 / ASMS ratio (%) n = 2: ASMS Ratio(%)=(A−C)/B×100; for ASMS ratio (%) n = 2: replicate n = 2
Procedure, shortened: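 Bcl-2 binding is scored from LC/MS signal retained with protein through gel-filtration spin columns, normalised to unfiltered and protein-free controls. Incubation: 20 μM protein, […] per compound, 1 h, 23° C.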

[1] = AS-MS, mixture of 1200 compounds, Bcl-2
[2] = AS-MS on the mixture of 1200 library compounds

T1 sequence (P10415 whole entry): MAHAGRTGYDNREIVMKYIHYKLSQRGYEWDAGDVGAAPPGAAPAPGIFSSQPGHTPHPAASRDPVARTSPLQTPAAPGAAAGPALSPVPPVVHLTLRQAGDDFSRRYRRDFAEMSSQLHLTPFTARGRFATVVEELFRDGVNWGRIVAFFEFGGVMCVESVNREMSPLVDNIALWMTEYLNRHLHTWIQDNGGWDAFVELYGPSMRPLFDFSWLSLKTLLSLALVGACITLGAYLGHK

ASMS ratio (%) n = 1 (AS-MS, mixture library, Bcl-2): 13.3% | ASMS ratio (%) n = 2 (AS-MS, mixture library, Bcl-2): 11.9%
Compound: CCOc1cncc(-c2cc(CN3CCN(c4ccc(C(=O)NS(=O)(=O)CC56CC7CC(CC(C7)C5)C6)nn4)CC3)cc(OC(C)C)c2)c1 [B2A084-01, N-(1-Adamantylmethylsulfonyl)-6-[4-[[3-(5-ethoxypyridin-3-yl)-5-propan-2-yloxyphenyl]methyl]piperazin-1-yl]pyridazine-3-carboxamide]

ASMS ratio (%) n = 1 [2]: 2.5% | ASMS ratio (%) n = 2 [2]: 0.0%
Compound: CCOc1cccc(-c2cc(C(=O)N3CCN(c4ccc(C(=O)Nc5ccc(OC)cc5)nn4)CC3)cc(C(F)(F)F)c2)c1 [B1O017-01, 6-[4-[3-(3-Ethoxyphenyl)-5-(trifluoromethyl)benzoyl]piperazin-1-yl]-N-(4-methoxyphenyl)pyridazine-3-carboxamide]

ASMS ratio (%) n = 1 [2]: 2.2% | ASMS ratio (%) n = 2 [2]: 2.8%
Compound: CCOc1cncc(-c2cc(CN3CCN(c4ccc(C(=O)N(C)CC56CC7CC(CC(C7)C5)C6)cc4)CC3)cc(C(F)(F)F)c2)c1 [B3A062-01, N-(1-Adamantylmethyl)-4-[4-[[3-(5-ethoxypyridin-3-yl)-5-(trifluoromethyl)phenyl]methyl]piperazin-1-yl]-N-methylbenzamide]

ASMS ratio (%) (n = 1): 0.0% | ASMS ratio (%) (n = 2): 0.0%
Compound: CCOc1cccc(-c2cc(CN3CCN(c4ccc(C(=O)NS(C)(=O)=O)nn4)CC3)cc(OCC)c2)c1 [B2I081-01]

ASMS ratio (%) n = 1 [1]: 2.1% | ASMS ratio (%) n = 2 [1]: −2.7%
Compound: CCOc1cncc(-c2cc(CN3CCN(c4ccc(C(=O)NCC56CC7CC(CC(C7)C5)C6)nn4)CC3)cc(OC(C)C)c2)c1 [B1A084-01, N-(1-Adamantylmethyl)-6-[4-[[3-(5-ethoxypyridin-3-yl)-5-propan-2-yloxyphenyl]methyl]piperazin-1-yl]pyridazine-3-carboxamide]

Second part, the compound before the results:

Compound: CCOc1cccc(-c2cnn(-c3cc(C(=O)N4CCN(c5ccc(C(=O)NS(=O)(=O)c6ccc(NCCSc7ccccc7)c(C(F)(F)F)c6)cc5)CC4)cc(C(F)(F)F)c3)c2)c1 [B2R043-01, 4-[4-[3-[4-(3-Ethoxyphenyl)pyrazol-1-yl]-5-(trifluoromethyl)benzoyl]piperazin-1-yl]-N-[4-(2-phenylsulfanylethylamino)-3-(trifluoromethyl)phenyl]sulfonylbenzamide]
ASMS ratio (%) (n = 1): 3.4% | ASMS ratio (%) (n = 2): −9.0%

Compound: 4-[4-[3-tert-Butyl-5-(3-ethoxyphenyl)benzoyl]piperazin-1-yl]-N-propylbenzamide [B1M062-01]
ASMS ratio (%) n = 1 [1]: 1.6% | ASMS ratio (%) n = 2 [1]: −1.7%

Compound: CCOc1cccc(C#Cc2ccccc2C(=O)N2CCN(c3ccc(C(=O)Nc4ccc(OC)cc4)nn3)CC2)c1 [B1O007-01, 6-[4-[2-[2-(3-Ethoxyphenyl)ethynyl]benzoyl]piperazin-1-yl]-N-(4-methoxyphenyl)pyridazine-3-carboxamide]
ASMS ratio (%) n = 1 [2]: 4.5% | ASMS ratio (%) n = 2 [2]: 0.9%

Compound: CCOc1cccc(-c2ccc(CN3CCN(c4ccc(C(=O)NS(=O)(=O)C(C)(C)C)nn4)CC3)c(CC)c2)c1 [B2L075-01, N-tert-Butylsulfonyl-6-[4-[[4-(3-ethoxyphenyl)-2-ethylphenyl]methyl]piperazin-1-yl]pyridazine-3-carboxamide]
ASMS ratio (%) (n = 1): 0.0% | ASMS ratio (%) (n = 2): 33.9%

Compound: CCOc1cncc(-c2ccc(C(=O)N3CCN(c4ccc(C(=O)NS(=O)(=O)C(C)(C)C)nn4)CC3)cc2C)c1 [B2L004-01, N-tert-Butylsulfonyl-6-[4-[4-(5-ethoxypyridin-3-yl)-3-methylbenzoyl]piperazin-1-yl]pyridazine-3-carboxamide]
ASMS ratio (%) (n = 1): 5.5% | ASMS ratio (%) (n = 2): 9.3%

Compound: CCOc1cncc(-c2cnn(-c3cc(C(=O)N4CCN(c5ccc(C(=O)NS(=O)(=O)c6ccc(NCCSc7ccccc7)c([N+](=O)[O-])c6)nn5)CC4)cc(C(F)(F)F)c3)c2)c1 [B2Q022-01, 6-[4-[3-[4-(5-Ethoxypyridin-3-yl)pyrazol-1-yl]-5-(trifluoromethyl)benzoyl]piperazin-1-yl]-N-[3-nitro-4-(2-phenylsulfanylethylamino)phenyl]sulfonylpyridazine-3-carboxamide]
ASMS ratio (%) n = 1 (AS-MS, mixture library, Bcl-2): 13.8% | ASMS ratio (%) n = 2 (AS-MS, mixture library, Bcl-2): 23.6%
